Experimental data reported in patent US20040106681A1, “Dosage escalation and divided daily dose of anti-depressants to treat neurological disorders” (priority 2002, published 2004).
Where a name gives a salt, the structure may show the parent alone.

Legend:
[1] = pretreatment; repeatedly stressed rats; cited from earlier work
[2] = Example 1 gradual dose escalation study in fibromyalgia; format: in vivo, human; settings: out of approximately 70 treated; weekly escalation 25, 50, 100, 200 mg daily
Text: This study was undertaken to characterize the efficacy of milnacipran in treatment of fibromyalgia syndrome (FMS). A secondary objective was to evaluate the relationship between daily dose administered, frequency of dosing, and efficacy in treatment of FMS. […] In this study, daily dosages were gradually escalated.
Subjects who met the 1990 ACR criteria for fibromyalgia syndrome were eligible for enrollment. Patients recorded baseline symptoms for the first two weeks after washing off anti-depressants, hypnotics and certain other drugs that potentially could interfere with efficacy measurements. […] If the patient tolerated this dosage, they were stepped up to a 50 mg daily dosage for week two, 100 mg for week three, and 200 mg for week four, or a matching placebo. If dose-limiting toxicities were encountered during any given week, the patient was stepped down to the previous week's dosage and maintained at that dosage for the remainder of the study. Subjects continued to take their maximum tolerated dose (up to 200 mg) for an additional 8 weeks. Patients may receive a total of 12 weeks of medication. Dose-limited toxicity is defined as the occurrence of a drug-related grade 3-4 adverse event.
Efficacy was measured using FMS status assessments prior to receiving the first dose and during monthly clinic visits. […]

[3] = swim stress test, grip strength (muscle hyperalgesia); format: in vivo, Sprague-Dawley rats
Experimental: (§1) The treatment groups of rats were the following: (1) stressed—forced swimming in 20 cm of water; (2) sham—swimming in 2-3 cm of water; (3) naive—left undisturbed in cage.
(§2) The rats were tested for thermal nociception threshold by hot plate response latency (in seconds). The rats were tested for muscle hyperalgesia by measuring grip strength (in kg) by algometer.
(§3) Data on hot plate response latency and grip strength was acquired on days 7 and 11.

[4] = swim stress test, hot plate response latency (thermal nociception threshold); format: in vivo, Sprague-Dawley rats
Experimental: as §1, §2, §3

[5] = Example 2 12-week randomized, double-blind placebo-controlled dose escalation monotherapy trial in FMS; format: in vivo, human; settings: for Intolerance (dose escalation failures, number of patients): 36 total patients
Experimental: After an initial period when patients were washed off pain medication, centrally acting stimulants, antidepressants and sedative-hypnotics, a two-week baseline period was begun. […] All patients were escalated over a 4-week period in weekly steps from 25 mg daily, to 50, 100, and finally 200 mg daily, or until dose-limiting toxicity (DLT) was evident. The presence of DLT was evaluated by the study center each week prior to authorizing the patient to step up to the next higher dosage. In the event that DLT was evident, the patient was stabilized at the previously well-tolerated dosage, and remained on this dose for eight weeks at stable dose therapy. Patients who successfully reached the 200 mg daily dose were also then treated for an additional 8 weeks at that dose.
At any give dose level, milnacipran QD patients would receive the full dose of milnacipran in the morning and receive placebo at night. Milnacipran BID patients would receive the same total amount in a split dose given morning and evening. During the study, patents were asked to carry an electronic diary and record pain, fatigue, sleep, and functional information. The custom designed diary captured spontaneous pain data in several ways, including
(1) random daily prompts (the device notified the patient to record their current level of pain 4-5 times per day);
(2) a morning daily prompt querying about the previous 24-hours' pain;
(3) a Friday night weekly report asking about the patient's average pain for the past week.
The electronic assessments were supplemented with traditional pain, mood, and quality of life inventories during clinic visits. The diaries implemented an electronic version of the Gracely anchored logarithmic pain scale. This scale asks patients to choose between “extremely intense,” “very intense,” “intense,” “strong,” “slightly intense,” “barely strong,” “moderate,” “mild,” “very mild,” “weak,” “very weak,” “faint,” and “no pain” sensation to describe their pain.
During the 4th, 8th, and 12th week of treatment, patients visited the clinic, where a number of standard outcome measures including the SF-36, the McGill pain questionnaire, the Beck, the STPI, the fibromyalgia impact questionnaire, and several pain measures were administered. Safety information was also collected at these clinic visits.
The primary endpoint was defined as the change in pain score from baseline to endpoint based on pain scores collected on the patient electronic diary (PED). Endpoint was defined as week twelve for assessments with a single value (such as clinic measures) or the average of scores at weeks 11 and 12 for diary-based outcomes. “Responders” were defined as those patients an improvement in pain score of at least 30%.

[6] = pretreatment, 10 or 30 mg/kg/day IP QD days 1-11, swim stress days 8-10
[7] = treatment after swim stress, drug days 5-10, swim stress days 2-4

SMILES: CNCCC(Oc1ccc(C(F)(F)F)cc1)c1ccccc1.Cl (racemic) [fluoxetine, (±)-N-methyl-3-phenyl-3-[(α,α,α-trifluoro-p-tolyl)oxy]propylamine hydrochloride]
- development of cutaneous hyperalgesia [1]: prevent the development of cutaneous hyperalgesia

SMILES: CCN(CC)C(=O)[C@@]1(c2ccccc2)C[C@H]1CN (racemic) [milnacipran, (±)-cis-2-(aminomethyl)-N,N-diethyl-1-phenylcyclopropanecarboxamide hydrochloride]
- patients who failed to tolerate 200 mg/day [2]: 9
- stress-induced reduction in grip strength [3, 6]: prevented
- reduction in grip strength caused by repeated forced swim stress [3, 7]: did reverse
- swim stress-induced reductions in hot plate latency [4, 6]: not prevented
- swim stress-induced reductions in hot plate response latency [4, 7]: did not reverse
- patient global pain score, mean value ([5]; 1-7 scale (1 very much improved, 4 unchanged, 7 very much worse), endpoint, 38 MIL patients, QD and BID pooled): 2.3
- % Dose Intolerance ([5]; BID dosing): 6%
- Intolerance (dose escalation failures, number of patients) ([5]; BID dosing): 2
- difference in Beck scores at endpoint versus placebo ([5]; FMS patients meeting definition of MDE, pooled milnacipran groups, p=0.03): significant
- daily sleep quality scores, improvement versus placebo ([5]; QD and BID, 12-week treatment): No significant improvement
- % Dose Intolerance ([5]; QD dosing): 19%
- Intolerance (dose escalation failures, number of patients) ([5]; QD dosing): 7
- worsening of sleep quality ([5]; in vivo): no worsening
- patient electronic diary (PED) pain scores of responders ([5]; milnacipran BID, weeks 2-6, dose escalation): improvement
- 24-hour daily pain reported scores, BID versus QD ([5]; throughout 12-week treatment): BID dosing was more effective than QD dosing

SMILES: CN(C)CCCN1c2ccccc2CCc2ccc(Cl)cc21 [clormipramine]
- development of cutaneous hyperalgesia [1]: prevent the development of cutaneous hyperalgesia
